Data published in PMC8991007, “Benzylic Dehydroxylation of Echinocandin Antifungal Drugs Restores Efficacy against Resistance Conferred by Mutated Glucan Synthase” (Journal of the American Chemical Society, 2022).
Converted amounts (≈) assume the structure as drawn. Where two headings read alike, the source gives them in different places. *1 amine or outer side, *2 acyl side, *3 side chain or, on linkers, in order; H or OH if unused. Where a SMILES comes first, the peptide text is derived from it. Bridges are numbered along the chain shown (N, C = ends). [ ]: non-standard residue; d: D form. The star is where a group is joined. Orn(4R-OH,5R-OCH2CH2NMe3+) = C[N+](C)(C)CCO[C@@H](N[*:3])[C@H](O)C[C@H](N[*:1])C(=O)[*:2]; pTerphenylCO(4''-OnC5H11) = CCCCCOc1ccc(-c2ccc(-c3ccc(C(=O)*)cc3)cc2)cc1; Orn(4R-OH,5R-OH) = O=C([C@H](C[C@@H](O)[C@@H](O)N[*:3])N[*:1])[*:2]; hTyr(3S-OH,4S-OH) = N[C@H](C(=O)O)[C@H](O)[C@@H](O)c1ccc(O)cc1; Pro(3S-OH,4S-Me) = C[C@H]1CN[C@H](C(=O)O)[C@H]1O; hTyr(3R-OH) = N[C@H](C(=O)O)[C@H](O)Cc1ccc(O)cc1; Hyp = O=C(O)[C@@H]1C[C@@H](O)CN1

Experiments:
THLE-2 cells = test: cells; type: cell-based; settings: Homo sapiens
Description: The effects of ANF and RZF and their dehydroxylated derivatives 1 and 2 on the viability of human cells were further evaluated in an assay with THLE-2 cells, which are a transformed human liver epithelial cell line. These cells express phenotypic characteristics of normal adult liver epithelial cells.
THLE-2 cells (ATCC, cat. no. CRL2706) were cultured in 384-well plates coated with BEBM (Lonza, cat. no CC3170) containing 100 μg/mL BSA, 1:100 fibronectin (Sigma, cat. no. F0895), and a 1:100 PureCol EZ Gel Solution (Sigma, cat. no. 5074) for 50–60 min at 37 °C. THLE-2 cells were plated at a density of 2.5 × 10^3 cells/well in the coated plates in a total volume of 20 μL. Culture media were BEGM supplemented with 5 ng/mL hEGF (Sigma, cat. no. E5036), 70 ng/mL phosphoethanolamine (Sigma, cat. no. P0503), and 10% fetal bovine serum. Plates were incubated overnight at 37 °C, 95% humidity, and 5% CO2. The culture medium was replaced with 50 μL of a fresh medium, and compounds were applied to the cells in triplicate. Plates were cultured for another 72 h, and ATP was quantified using a CellTiter-Glo kit (Promega #G7573) according to the manufacturer’s protocol. The luminescence signal was detected using a PHERAstar FS (BMG Labtech).

HCT-116 = test: cells; type: cell-based; settings: Homo sapiens; HCT-116 expressing GFP, 24 h, mean ± SD; read-out: IC50 (cell viability)
Description: (§1) In this analysis, we used HCT-116, a human colorectal carcinoma cell line; UACC-62, a human melanoma cell line; Hs 578T, a human mammary gland carcinoma cell line, and SF-295, a human glioblastoma cell line. […] The highest concentration of the echinocandins used for the cell viability tests was determined based on the reported maximal plasma concentrations (Cmax) of ANF and RZF measured in humans. A Cmax of approximately 7 μM was measured during a pharmacokinetic study of ANF in patients with candidemia or invasive candidiasis who were treated with a 200 mg loading dose on day 1, followed by a daily 100 mg maintenance dose.[64]
(§2) Human cell lines HCT-116, UACC-62, Hs 578T, and SF-295 were obtained from the Life Sciences Core Facilities of the Nancy & Stephen Grand Israel National Center for Personalized Medicine. Cell lines were grown in an RPMI medium (Gibco, cat. no. 21875-034) supplemented with 10% fetal calf serum (Biological Industries, cat. no. 04-007-1A), Pen/Strep (Biological Industries, cat. no. 03-031-1B), and glutamine (Biological Industries, cat. no. 03-020-1B). GFP was introduced into cells using TALENS according to a previously reported protocol.[73] GFP cells were selected by FACS and propagated.
(§3) Assay-ready plates were designed using in-house software (CHEMPION, INCPM software development team) and prepared in 384-well Greiner plates (cat. no. 781091) using an Echo 555 Acoustic Liquid Handler (Labcyte). The final DMSO concentration in all samples was 0.4%. Prior to the experiment, cells were trypsinized and counted using a Countess cytometer. Cells were then diluted to 40,000 cells/mL in a fresh medium. Cells (50 μL/well; 2000 cells/well) were then dispensed with a Thermo Combi dispenser into plates containing predispensed compounds. After 30 min at room temperature to ensure uniform adherence of cells, the plates were moved to an automated incubator (Liconic STX44) and incubated at 37 °C. An automated confocal microscope with a 4× S Fluor lens (Molecular Devices ImageExpress) was used to acquire images of GFP-expressing cells after 24 h of incubation. Images were then analyzed using MetaExpress with a custom protocol (Custom Module Editor), and data were annotated and normalized using Genedata Screener software. Final normalized data were then loaded into CDD Vault software for comparative data visualization.

SF-295 = test: cells; type: cell-based; settings: Homo sapiens; SF-295 expressing GFP, 24 h, mean ± SD; read-out: IC50 (cell viability)
Description: as §1, §2, §3

UACC-62 = test: cells; type: cell-based; settings: Homo sapiens; UACC-62 expressing GFP, 24 h, mean ± SD; read-out: IC50 (cell viability)
Description: as §1, §2, §3

C. albicans = test: Minimum inhibitory concentration broth double-dilution assay; type: cell-based, Candida albicans; settings: for MIC: 24 h, 30 °C
Description: The antifungal activities of compounds 1 and 2 were evaluated against a panel of 50 strains of C. albicans and C. glabrata (Table S4), including echinocandin-resistant strains that were constructed by introducing mutations within and near the defined hotspots in the FKS1 and/or FKS2 genes.[27] To evaluate antifungal activity, we determined MIC values. The MIC was defined as the lowest drug concentration that led to turbidity (measured at 600 nm) of less than or equal to 35% of that of the untreated culture. As controls, we tested CSF, MCF, ANF, and RZF.
All of the tested compounds were dissolved in anhydrous DMSO to a concentration of 5 mg/mL. Candida strains were streaked from a glycerol stock onto YPAD agar plates and grown for 24 h at 30 °C. Colonies were suspended in 1 mL of PBS and diluted to an O.D. of 0.01 at 600 nm with YPAD broth and added into flat-bottom 96-well microplates (Corning) containing a gradient of twofold dilutions per tested compound with concentrations ranging from 64 to 0.0009 μg/mL. Control wells with no drug and blank wells without yeast cells containing YPAD only were also prepared. […] Each concentration was tested in triplicate, and results were confirmed by at least two independent sets of experiments.

Hs 578T = test: Phenotypic viability assay of GFP reporter cell line; type: cell-based; settings: Homo sapiens; Hs 578T expressing GFP, 24 h, mean ± SD
Description: as §1, §2, §3

[1] = THLE-2, 72 h of incubation, ranges for ANF and 1 and for RZF and 2 stated jointly, read-out: IC50 value (THLE-2 viability)
[2] = THLE-2, 72 h, ATP luminescence, read-out: IC50 (cell viability)
[3] = #2 C. albicans DPL1015 (DP-A15)
[4] = #3 C. albicans DPL1016 (DP-A15-10)

## CCCCCOc1ccc(-c2ccc(-c3ccc(C(=O)N[C@H]4C[C@@H](O)[C@@H](O)NC(=O)[C@@H]5[C@@H](O)[C@@H](C)CN5C(=O)[C@H]([C@@H](C)O)NC(=O)[C@H]([C@H](O)[C@@H](O)c5ccc(O)cc5)NC(=O)[C@@H]5C[C@@H](O)CN5C(=O)[C@H]([C@@H](C)O)NC4=O)cc3)cc2)cc1 [ANF, anidulafungin] ({pTerphenylCO(4''-OnC5H11)}-[Orn(4R-OH,5R-OH)]T[Hyp][hTyr(3S-OH,4S-OH)]T[Pro(3S-OH,4S-Me)]; lactam 1-C)
THLE-2 cells; [1]
  IC50: 36 to 41 µM
THLE-2 cells; [2]
  IC50: 40.6 ± 2.9 µM
HCT-116
  IC50: > 40 µM
SF-295
  IC50: 19.3 ± 1.97 µM
UACC-62
  IC50: 34.5 ± 4.15 µM
C. albicans; #1 C. albicans Sc5314
  MIC: 0.004 µg/mL (≈ 0.00351 µM)
C. albicans; [3]
  MIC: 0.063 µg/mL (≈ 0.0553 µM)
C. albicans; [4]
  MIC: 4 µg/mL (≈ 3.51 µM)
C. albicans; #4 C. albicans T-2068 (DP-C42)
  MIC: 2 µg/mL (≈ 1.75 µM)
C. albicans; #5 C. albicans T-2069 (DP-85)
  MIC: 2 µg/mL (≈ 1.75 µM)
C. albicans; #6 C. albicans (DP-89)
  MIC: 2 µg/mL (≈ 1.75 µM)
C. albicans; #7 C. albicans T-2076 (DP-194)
  MIC: 0.5 µg/mL (≈ 0.438 µM)
C. albicans; #8 C. albicans T-2077 (DP-205)
  MIC: 0.5 µg/mL (≈ 0.438 µM)
Hs 578T
  IC50: > 40 µM

## CCCCCOc1ccc(-c2ccc(-c3ccc(C(=O)N[C@H]4C[C@@H](O)[C@@H](O)NC(=O)[C@@H]5[C@@H](O)[C@@H](C)CN5C(=O)[C@H]([C@@H](C)O)NC(=O)[C@H]([C@H](O)Cc5ccc(O)cc5)NC(=O)[C@@H]5C[C@@H](O)CN5C(=O)[C@H]([C@@H](C)O)NC4=O)cc3)cc2)cc1 [Compound 1, dehydroxy-ANF] ({pTerphenylCO(4''-OnC5H11)}-[Orn(4R-OH,5R-OH)]T[Hyp][hTyr(3R-OH)]T[Pro(3S-OH,4S-Me)]; lactam 1-C)
THLE-2 cells; [1]
  IC50: 36 to 41 µM
THLE-2 cells; [2]
  IC50: 36.4 ± 2.75 µM
HCT-116
  IC50: > 40 µM
SF-295
  IC50: 17.5 ± 1.57 µM
UACC-62
  IC50: > 40 µM
C. albicans; #1 C. albicans Sc5314
  MIC: 0.008 µg/mL (≈ 0.00712 µM)
C. albicans; [3]
  MIC: 0.031 µg/mL (≈ 0.0276 µM)
C. albicans; [4]
  MIC: 1 µg/mL (≈ 0.889 µM)
C. albicans; #4 C. albicans T-2068 (DP-C42)
  MIC: 0.25 µg/mL (≈ 0.222 µM)
C. albicans; #5 C. albicans T-2069 (DP-85)
  MIC: 0.5 µg/mL (≈ 0.445 µM)
C. albicans; #6 C. albicans (DP-89)
  MIC: 1 µg/mL (≈ 0.889 µM)
C. albicans; #7 C. albicans T-2076 (DP-194)
  MIC: 0.5 µg/mL (≈ 0.445 µM)
C. albicans; #8 C. albicans T-2077 (DP-205)
  MIC: 0.125 µg/mL (≈ 0.111 µM)
C. albicans; C. albicans strain 4, Fks1 phenylalanine 641 to serine
  MIC difference between ANF and dehydroxy derivative 1 (ratio MIC (ANF)/MIC (1)): 8 fold
Hs 578T
  IC50: > 40 µM

## CCCCCOc1ccc(-c2ccc(-c3ccc(C(=O)N[C@H]4C[C@@H](O)[C@@H](OCC[N+](C)(C)C)NC(=O)[C@@H]5[C@@H](O)[C@@H](C)CN5C(=O)[C@H]([C@@H](C)O)NC(=O)[C@H]([C@H](O)Cc5ccc(O)cc5)NC(=O)[C@@H]5C[C@@H](O)CN5C(=O)[C@H]([C@@H](C)O)NC4=O)cc3)cc2)cc1 [Compound 2, dehydroxy-RZF] ({pTerphenylCO(4''-OnC5H11)}-[Orn(4R-OH,5R-OCH2CH2NMe3+)]T[Hyp][hTyr(3R-OH)]T[Pro(3S-OH,4S-Me)]; lactam 1-C)
THLE-2 cells; [1]
  IC50: 36 to 77 µM
THLE-2 cells; [2]
  IC50: 55.9 ± 3 µM
HCT-116
  IC50: 34.1 ± 11.5 µM
SF-295
  IC50: 32.4 ± 6.7 µM
UACC-62
  IC50: 29.2 ± 5.2 µM
C. albicans; #1 C. albicans Sc5314
  MIC: 0.015 µg/mL
C. albicans; [3]
  MIC: 0.062 µg/mL
C. albicans; [4]
  MIC: 2 µg/mL
C. albicans; #4 C. albicans T-2068 (DP-C42)
  MIC: 0.5 µg/mL
C. albicans; #5 C. albicans T-2069 (DP-85)
  MIC: 0.5 µg/mL
C. albicans; #6 C. albicans (DP-89)
  MIC: 1 µg/mL
C. albicans; #7 C. albicans T-2076 (DP-194)
  MIC: 1 µg/mL
C. albicans; #8 C. albicans T-2077 (DP-205)
  MIC: 0.25 µg/mL
C. albicans; C. albicans strains 5 and 6, Fks1 serine 645 to phenylalanine or tyrosine
  MIC differences between RZF and dehydroxy derivative 2 (ratio MIC (RZF)/MIC (2)): at least 8 fold
Hs 578T
  IC50: > 40 µM

## CCCCCOc1ccc(-c2ccc(-c3ccc(C(=O)N[C@H]4C[C@@H](O)[C@@H](OCC[N+](C)(C)C)NC(=O)[C@@H]5[C@@H](O)[C@@H](C)CN5C(=O)[C@H]([C@@H](C)O)NC(=O)[C@H]([C@H](O)[C@@H](O)c5ccc(O)cc5)NC(=O)[C@@H]5C[C@@H](O)CN5C(=O)[C@H]([C@@H](C)O)NC4=O)cc3)cc2)cc1 [RZF, rezafungin] ({pTerphenylCO(4''-OnC5H11)}-[Orn(4R-OH,5R-OCH2CH2NMe3+)]T[Hyp][hTyr(3S-OH,4S-OH)]T[Pro(3S-OH,4S-Me)]; lactam 1-C)
THLE-2 cells; [1]
  IC50: 36 to 77 µM
THLE-2 cells; [2]
  IC50: 76.6 ± 4.8 µM
HCT-116
  IC50: > 40 µM
SF-295
  IC50: > 40 µM
UACC-62
  IC50: > 40 µM
C. albicans; #1 C. albicans Sc5314
  MIC: 0.015 µg/mL
C. albicans; [3]
  MIC: 0.25 µg/mL
C. albicans; [4]
  MIC: 4 µg/mL
C. albicans; #4 C. albicans T-2068 (DP-C42)
  MIC: 2 µg/mL
C. albicans; #5 C. albicans T-2069 (DP-85)
  MIC: 8 µg/mL
C. albicans; #6 C. albicans (DP-89)
  MIC: 8 µg/mL
C. albicans; #7 C. albicans T-2076 (DP-194)
  MIC: 1 µg/mL
C. albicans; #8 C. albicans T-2077 (DP-205)
  MIC: 1 µg/mL
Hs 578T
  IC50: > 40 µM
